In ChEMBL document CHEMBL4480448, “In Situ Ring Contraction and Transformation of the Rhizoxin Macrocycle through an Abiotic Pathway” (J Nat Prod, 2019):
Calls of active or inactive are those of the source.

Tests used:
Type in all cases: functional, cell-based
[1] = tested on: TC-32; assay: Cytotoxicity against human TC32 cells assessed as reduction in cell viability at 2 uM after 48 hrs by SRB assay
[2] = tested on: A673; assay: Cytotoxicity against human A673 cells assessed as reduction in cell viability at 2 uM after 48 hrs by SRB assay
[3] = tested on: SK-ES1; assay: Cytotoxicity against human SK-ES-1 cells assessed as reduction in cell viability at 2 uM after 48 hrs by SRB assay
[4] = species: Homo sapiens; assay: Cytotoxicity against human SJCRH30 cells assessed as reduction in cell viability at 2 uM after 48 hrs by SRB assay
[5] = species: Homo sapiens; assay: Cytotoxicity against human D283 cells assessed as reduction in cell viability at 2 uM after 48 hrs by SRB assay
[6] = tested on: Hep293TT; assay: Cytotoxicity against human Hep293TT cells assessed as reduction in cell viability at 2 uM after 48 hrs by SRB assay

Measured: Activity

CO[C@@H](/C(C)=C/C=C/C(C)=C/c1coc(C)n1)[C@@H](C)[C@@H]1C[C@H](O)[C@@](C)(O)[C@@H](O)/C=C/[C@@H](C)[C@H]2C[C@H](CC(=O)O2)C[C@@H]2O[C@H]2C(=O)O1
inactive: all assays above

CO[C@@H](/C(C)=C/C=C/C(C)=C/c1coc(C)n1)[C@@H](C)[C@@H]1C[C@H](O)[C@@](C)(O)[C@H](O)/C=C/[C@@H](C)[C@H]2C[C@H](CC(=O)O2)C[C@@H]2O[C@H]2C(=O)O1
inactive: all assays above

COC(=O)C[C@H]1C[C@@H](O)[C@H](C)[C@@H](O)/C=C/[C@](C)(O)[C@@H](O)C[C@@H]([C@H](C)[C@@H](OC)/C(C)=C/C=C/C(C)=C/c2coc(C)n2)OC(=O)[C@@H]2O[C@H]2C1
inactive: all assays above

CO[C@@H](/C(C)=C/C=C/C(C)=C/c1coc(C)n1)[C@@H](C)[C@@H]1C[C@H](O)[C@H](C(C)=O)/C=C/[C@@H](C)[C@H]2C[C@H](CC(=O)O2)C[C@@H]2O[C@H]2C(=O)O1
inactive: all assays above

CO[C@@H](/C(C)=C/C=C/C(C)=C/c1coc(C)n1)[C@@H](C)[C@@H]1C[C@H](O)[C@@](C)(O)/C=C/[C@H](O)[C@@H](C)[C@H]2C[C@H](CC(=O)O2)C[C@@H]2O[C@H]2C(=O)O1
inactive: all assays above
